# Experimental data as given in US12428432B2, “Thienopyrimidine derivatives having stereo configurations and use thereof in medicine” (SUNSHINE LAKE PHARMA CO., LTD., priority 2019, dated 2025).
# Read-outs that look alike come from different tables or passages of the source.
# Assays:
# [1] = Tissue distribution (liver/plasma) in mice after intragastric administration, LC-MS/MS; assay type: in vivo, C57BL/6 mice; conditions: C57BL/6 male mice; for Kp at 0.5 h / Kp at 1 h / Kp at 2 h / concentration at 0.5 h / concentration at 1 h / concentration at 2 h: mouse, oral, 5 ml/kg; for Kp at 0.5 h / Kp at 1 h / Kp at 2 h: liver/plasma; for Kp at 0.5 h: read-out: Partition ratios of liver and plasma 0.5 h; for Kp at 1 h: read-out: Partition ratios of liver and plasma 1 h; for Kp at 2 h: read-out: Partition ratios of liver and plasma 2 h
# Method: C57BL/6 mice were used as the test animals, the LC-MS/MS method was used to determine the drug concentration in plasma and liver at different times after the mice were administered intragastrically the compounds of Examples 1 to 3 and A13. Pharmacokinetic properties of the compounds of the present invention in mice were studied.
# The prescriptions of A13, Example 1 and Example 2 were: 5% DMSO+5% Kolliphor HS15+90% Saline
# The prescription of Example 3 was: 10% DMSO+10% Kolliphor HS15+80% Saline
# Healthy adult C57BL/6 male mice, purchased from Hunan Slack Jingda Experimental Animal Co., Ltd., with an animal weight of 18-24 g, were administered intragastrically at a dosage of […] and a volume of 10 ml/kg.
# Bloods were collected from the orbit at different time points, and the whole blood samples were placed in an anticoagulation tube containing EDTA-K2; the plasma was separated by centrifugation (centrifugation conditions: 12000 rpm, 2 min) and the upper plasma sample was collected and placed into a sample tube.
# Animals were dissected and collected livers at different time points, a certain mass of liver tissue was weighed, 5 times the volume (m/V) of methanol solution was added to the homogenization tube, then homogenized at 60 hz for 2 minutes and centrifuged at 4° C. for 2 minutes, the supernatant was taken to obtain the liver homogenate.
# LC-MS/MS was used to analyze the content of the test compounds in the plasma and liver of the mice after the compounds were administered intragastrically.
# ACC2 = ACC2 (Homo sapiens (Human), UniProt O00763); assay: In vitro inhibitory activity test of acetyl-CoA carboxylase (ADP-Glo Kinase Analysis), ACC2; assay type: biochemical
# Method: (§1) The in vitro inhibitory effects of the compounds on ACC1 or ACC2 were tested by ADP-Glo™ Kinase Analysis Kit from Promega Company. The ADP-Glo™ Kinase Analysis was a luminescent ADP detection analysis, which was used to measure enzyme activity by quantifying the amount of ADP produced during the enzyme reaction. The analysis was performed with two steps: first, after the enzyme reaction, ADP-Glo™ reagent was added to stop the reaction and deplete the remaining ATP; then, a kinase detection reagent was added to simultaneously convert ADP to ATP and the newly synthesized ATP was measured using the luciferase/luciferin reaction. The luminescence can be correlated to the ADP concentration by using the ATP to ADP conversion curve.
# (§2) The specific steps are as follows: • a. 4.5 μL/well of ACC1/ACC2 working solution (2.22 nM) was added to a 384-well reaction plate (PerkinElmer, 6007290); • b. The compound (10 mM stock solution) was diluted 500 times to 20 μM with 100% DMSO, and diluted in a ratio of 1:3 in a 384 dilution plate (3657, corning). The gradient concentrations of the compound were 20, 6.67, 2.22 0.74, 0.25, 0.082, 0.027, 0.009, 0.003, 0.001, 0 μM; • c. 0.5 μL/well of the compound solution (prepared in step b) was transferred to the 384-well reaction plate (prepared in step a), then plate was centrifuged at 1000 rpm and incubated at 25° C. for 15 minutes; • d. […] Relative luminescence unit (RLU) was read on an Envision multifunction plate reader. […]
# (§3) The average values of each concentration and the data of the positive and negative controls were calculated, as well as the standard deviation. The percentage of inhibition was calculated by the formula: 100×(average negative control−compound)/(average negative control−average positive control). The IC50 for each compound was calculated by fitting the data with a nonlinear regression equation: Y=Bottom+(Top−Bottom)/(1+10^((Log IC50−X)×HillSlope)), wherein X is the log of compound concentration and Y is the percentage of inhibition.
# ACC1 = ACC1 (Homo sapiens (Human), UniProt Q13085); assay: In vitro inhibitory activity test of acetyl-CoA carboxylase (ADP-Glo Kinase Analysis), ACC1; assay type: biochemical
# Method: as §1, §2, §3
# [2] = Liver microsome stability test; assay type: in vitro ADME; conditions: mouse liver microsomes, Conc. 1 μM; for half-life at 1 μM: male, CD-1; for Remaining (%) (NCF = 60 min): no cofactor (buffer instead of NADPH); for Remaining (%) (T = 60 min): with NADPH
# Method: Male CD-1 mouse liver microsomes, purchased from BD Gentest.
# Preparation of stock solution: a certain amount of test compound of A13 and Example 1 were weighed to prepare a stock solution with a concentration of 10 mM with DMSO, and stored in a refrigerator at −20° C.
# Preparation of NADPH solution: a certain amount of NADPH to be tested was weighed and prepared a solution with a concentration of 6 mM with 0.1 M potassium phosphate buffer (5 mg of NADPH was weighed and added to 1 mL of potassium phosphate buffer, the concentration was equivalent to 6 mM).
# Preparation of compound dosing solution: 100 μM dosing solution: 5 μL of 10 mM stock solution was added to 495 μL of acetonitrile:water (1:1); 30 μM dosing solution: 60 μL of 100 μM dosing solution was added to 140 μL of 0.1 M potassium phosphate buffer; 1.5 μM dosing solution: 25 μL of 30 μM dosing solution and 18.8 μL (20 mg/mL) of liver microsomes were added to 456.2 μL of 0.1 M potassium phosphate buffer, one for each species.
# μ30 μL of 1.5 μM dosing solution of the compound was added to a 96-well plate, 150 μL or 200 μL of acetonitrile internal standard was added immediately to the plate, then 15 μL of NADPH solution (6 mM) was added to the plate, the mixture was mixed well and placed in a 4° C. refrigerator as the initial 0 point sample, each drug was made two holes in parallel.
# 30 μL of 1.5 μM dosing solution was added to positions set at different time points in the 96-well plate, each drug was made two holes in parallel, and the pleat was preheated at 37° C. for 10 min.
# After pre-incubation, 15 μL of NADPH solution (6 mM) was added to the well set at the time point of 60 min, at the time point of NCF60, 15 μL of potassium phosphate buffer salt solution was added at the same time to start the reaction and start timing. Then after 40 min, 15 μL of NADPH solution was added to the well set at 20 min. After 20 min, the incubation was over. 150 or 200 μL of acetonitrile internal standard was added to the positions set at all time points. The plate was centrifuged at 4000 rpm for 5 min, 50 μL supernatant was taken out and diluted with 150 μL water for sample analysis.
# The initial 0 point was used as 100%, the relative content of the drug at each time point was calculated. GraphPad Prism5 software was used to plot the “relative content of the drug” versus “incubation time” to calculate the half-life of the drug and calculate the intrinsic clearance rate.
# [3] = liver, read-out: Average tissue concentrations (liver) 0.5 h
# [4] = liver, 1 h, read-out: Average tissue concentrations (liver) 1 h
# [5] = liver, read-out: Average tissue concentrations (liver) 2 h
# [6] = plasma, read-out: Average concentration (plasma) 0.5 h
# [7] = plasma, 1 h, read-out: Average concentration (plasma) 1 h
# [8] = plasma, read-out: Average concentration (plasma) 2 h
# ACC2, sequence (O00763 whole entry, species assumed): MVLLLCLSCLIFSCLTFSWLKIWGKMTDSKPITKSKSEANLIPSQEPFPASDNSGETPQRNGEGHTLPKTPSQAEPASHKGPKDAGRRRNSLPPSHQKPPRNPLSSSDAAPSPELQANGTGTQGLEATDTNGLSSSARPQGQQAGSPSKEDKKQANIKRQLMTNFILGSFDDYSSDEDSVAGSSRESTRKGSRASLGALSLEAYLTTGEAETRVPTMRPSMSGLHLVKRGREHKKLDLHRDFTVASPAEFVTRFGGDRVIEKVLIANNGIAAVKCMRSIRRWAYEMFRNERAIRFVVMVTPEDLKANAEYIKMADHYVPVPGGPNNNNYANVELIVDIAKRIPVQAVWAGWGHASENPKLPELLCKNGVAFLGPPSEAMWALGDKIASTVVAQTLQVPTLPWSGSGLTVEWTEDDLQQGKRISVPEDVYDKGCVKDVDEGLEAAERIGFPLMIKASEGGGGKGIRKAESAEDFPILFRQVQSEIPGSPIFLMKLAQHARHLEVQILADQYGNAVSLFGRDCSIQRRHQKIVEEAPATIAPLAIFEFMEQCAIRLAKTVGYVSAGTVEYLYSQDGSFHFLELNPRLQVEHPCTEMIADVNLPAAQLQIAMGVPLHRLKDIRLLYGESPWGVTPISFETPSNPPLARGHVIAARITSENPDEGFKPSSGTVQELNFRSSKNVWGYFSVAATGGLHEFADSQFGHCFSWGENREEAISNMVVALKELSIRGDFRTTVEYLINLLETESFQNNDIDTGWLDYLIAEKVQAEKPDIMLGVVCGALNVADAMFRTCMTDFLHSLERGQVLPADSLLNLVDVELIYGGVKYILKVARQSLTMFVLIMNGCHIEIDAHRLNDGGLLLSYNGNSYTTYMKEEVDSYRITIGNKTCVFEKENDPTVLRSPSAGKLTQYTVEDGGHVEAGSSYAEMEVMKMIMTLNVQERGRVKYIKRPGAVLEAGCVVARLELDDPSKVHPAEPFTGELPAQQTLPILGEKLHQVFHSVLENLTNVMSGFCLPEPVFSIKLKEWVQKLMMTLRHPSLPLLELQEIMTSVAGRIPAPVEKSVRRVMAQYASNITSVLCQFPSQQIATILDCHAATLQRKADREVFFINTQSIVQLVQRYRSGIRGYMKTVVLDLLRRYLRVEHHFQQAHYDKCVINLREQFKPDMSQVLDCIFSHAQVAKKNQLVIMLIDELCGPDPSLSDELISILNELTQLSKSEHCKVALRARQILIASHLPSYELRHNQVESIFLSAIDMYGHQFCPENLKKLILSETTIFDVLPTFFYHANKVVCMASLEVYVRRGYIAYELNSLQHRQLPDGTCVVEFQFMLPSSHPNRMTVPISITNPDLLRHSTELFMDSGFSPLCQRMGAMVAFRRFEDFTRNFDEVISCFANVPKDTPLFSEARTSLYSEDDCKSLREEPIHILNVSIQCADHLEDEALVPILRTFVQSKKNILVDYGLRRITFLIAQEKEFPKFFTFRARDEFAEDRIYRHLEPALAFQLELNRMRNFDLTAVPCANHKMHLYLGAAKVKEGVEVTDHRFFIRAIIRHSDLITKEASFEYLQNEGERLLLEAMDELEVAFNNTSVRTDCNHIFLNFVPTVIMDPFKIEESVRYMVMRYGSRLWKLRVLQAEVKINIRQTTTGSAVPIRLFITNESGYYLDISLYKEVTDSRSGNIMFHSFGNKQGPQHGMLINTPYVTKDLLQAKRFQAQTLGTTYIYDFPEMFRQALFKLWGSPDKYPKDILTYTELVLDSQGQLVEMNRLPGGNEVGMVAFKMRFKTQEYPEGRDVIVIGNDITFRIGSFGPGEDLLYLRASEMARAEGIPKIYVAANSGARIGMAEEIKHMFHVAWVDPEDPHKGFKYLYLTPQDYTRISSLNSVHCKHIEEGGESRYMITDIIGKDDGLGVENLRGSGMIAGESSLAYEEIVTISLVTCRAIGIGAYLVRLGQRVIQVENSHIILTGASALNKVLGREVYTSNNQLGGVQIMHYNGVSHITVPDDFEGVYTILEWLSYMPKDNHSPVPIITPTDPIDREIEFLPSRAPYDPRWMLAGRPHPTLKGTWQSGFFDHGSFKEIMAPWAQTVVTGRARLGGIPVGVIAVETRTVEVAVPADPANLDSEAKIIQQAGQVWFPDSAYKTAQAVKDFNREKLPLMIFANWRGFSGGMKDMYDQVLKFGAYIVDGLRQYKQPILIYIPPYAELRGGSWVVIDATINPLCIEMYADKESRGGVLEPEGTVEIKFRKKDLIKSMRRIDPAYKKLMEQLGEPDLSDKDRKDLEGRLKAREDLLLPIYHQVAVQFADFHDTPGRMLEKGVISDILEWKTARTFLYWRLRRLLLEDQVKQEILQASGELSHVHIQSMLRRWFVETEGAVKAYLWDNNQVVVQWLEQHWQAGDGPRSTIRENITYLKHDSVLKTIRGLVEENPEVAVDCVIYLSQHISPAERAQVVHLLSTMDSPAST
Partition ratios of liver and plasma 0.5 h [1],Partition ratios of liver and plasma 2 h [1],Average tissue concentrations (liver) 0.5 h ([1]; liver) [ng/g],Average tissue concentrations (liver) 2 h ([1]; liver) [ng/g],Average concentration (plasma) 0.5 h ([1]; plasma) [ng/g],Average concentration (plasma) 2 h ([1]; plasma) [ng/g],IC50 (ACC2) [nM],IC50 (ACC1) [nM],Kp at 0.5 h [1],Kp at 1 h ([1]; 1 h),Kp at 2 h [1],"concentration at 0.5 h [1, 3] [ng/g]","concentration at 1 h [1, 4] [ng/g]","concentration at 2 h [1, 5] [ng/g]","concentration at 0.5 h [1, 6] [ng/g]","concentration at 1 h [1, 7] [ng/g]","concentration at 2 h [1, 8] [ng/g]",half-life at 1 μM [2] [h],ClHep [2] [mL/min/kg],Clin vivo [2] [mL/min/kg],Compound,also measured
122,104,75500,26500,669,253,2.43,0.23,,,,,,,,,,,,,"COc1ccccc1[C@H](Cn1c(=O)n(C(C)(C)C(=O)O)c(=O)c2c(C)c(-c3ncco3)sc21)O[C@H]1C[C@H]2COC[C@H]2C1 [Example 3, 2-[1-[(2R)-2-[[(3aR,6aS)-3,3a,4,5,6,6a-hexahydro-1H-cyclopenta[c]furan-5-yl]oxy]-2-(2-methoxyphenyl)ethyl]-5-methyl-6-oxazol-2-yl-2,4-dioxo-thieno[2,3-d]pyrimidin-3-yl]-2-methyl-propionic acid]",
,,,,,,,,86,130,170,61500,33300,14000,717,249,82.8,1.49,60.9,36.3,"COc1ccccc1C(Cn1c(=O)n(C(C)(C)C(=O)O)c(=O)c2c(C)c(-c3ncco3)sc21)OC1CC2COCC2C1 (racemic) [Example A13, reference compound]",ER [2]: 0.4; Remaining (%) (NCF = 60 min) [2]: 81.0%; Remaining (%) (T = 60 min) [2]: 63.4%
,,,,,,3.82,1.09,190,120,180,70400,40600,16900,373,351,96.4,,,,"COc1ccccc1[C@H](Cn1c(=O)n(C(C)(C)C(=O)O)c(=O)c2c(C)c(-c3ncco3)sc21)OC1C[C@@H]2COC[C@H]2C1 [Example 2, 2-[1-[(2R)-2-[[(3aS,6aS)-3,3a,4,5,6,6a-hexahydro-1H-cyclopenta[c]furan-5-yl]oxy]-2-(2-methoxyphenyl)ethyl]-5-methyl-6-oxazol-2-yl-2,4-dioxo-thieno[2,3-d]pyrimidin-3-yl]-2-methyl-propionic acid]",
190,600,75000,35500,391,59.1,3.65,1.42,,,,,,,,,,2.42,38.0,9.6,"COc1ccccc1[C@H](Cn1c(=O)n(C(C)(C)C(=O)O)c(=O)c2c(C)c(-c3ncco3)sc21)OC1C[C@H]2COC[C@@H]2C1 [Example 1, 2-[1-[(2R)-2-[[(3aR,6aR)-3,3a,4,5,6,6a-hexahydro-1H-cyclopenta[c]furan-5-yl]oxy]-2-(2-methoxyphenyl)ethyl]-5-methyl-6-oxazol-2-yl-2,4-dioxo-thieno[2,3-d]pyrimidin-3-yl]-2-methyl-propionic acid]","Partition ratios of liver and plasma 1 h ([1]; 1 h): 140; Average tissue concentrations (liver) 1 h ([1]; liver, 1 h): 48300 ng/g; Average concentration (plasma) 1 h ([1]; plasma, 1 h): 336 ng/g; ER [2]: 0.1; Remaining (%) (NCF = 60 min) [2]: 90.6%; Remaining (%) (T = 60 min) [2]: 71.9%"
